# Laboratory results published in paper PMC6523382 (Pharmaceutics, 2019).
# pIC50: −log10 of the molar value. Where two headings read alike, the source gives them in different places.
# Assays:
# OCT1 [1] = molecular target: T1, OCT1 (Homo sapiens, UniProt O15245); details: read-out: IC50 for OCT1 reported in the literature; cited from earlier work
# T1 sequence (O15245 1-554): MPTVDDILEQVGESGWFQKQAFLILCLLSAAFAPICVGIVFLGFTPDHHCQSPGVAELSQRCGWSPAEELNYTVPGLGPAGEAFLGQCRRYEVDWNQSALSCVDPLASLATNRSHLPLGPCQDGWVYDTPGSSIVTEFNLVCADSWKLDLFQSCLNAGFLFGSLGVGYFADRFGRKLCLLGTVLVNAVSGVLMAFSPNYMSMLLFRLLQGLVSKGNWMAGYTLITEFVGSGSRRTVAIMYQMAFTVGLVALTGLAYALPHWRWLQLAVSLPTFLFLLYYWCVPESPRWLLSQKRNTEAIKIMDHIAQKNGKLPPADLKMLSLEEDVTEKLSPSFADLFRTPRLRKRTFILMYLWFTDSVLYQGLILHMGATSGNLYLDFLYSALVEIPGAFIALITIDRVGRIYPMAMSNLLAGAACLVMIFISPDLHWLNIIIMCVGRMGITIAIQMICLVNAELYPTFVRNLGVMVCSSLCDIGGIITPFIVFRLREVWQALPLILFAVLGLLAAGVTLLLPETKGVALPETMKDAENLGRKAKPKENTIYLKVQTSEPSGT
# OCT2 [2] = molecular target: T2, OCT2 (Homo sapiens, UniProt O15244); details: read-out: IC50 for OCT2 reported in the literature; cited from earlier work
# T2 sequence (O15244 1-555): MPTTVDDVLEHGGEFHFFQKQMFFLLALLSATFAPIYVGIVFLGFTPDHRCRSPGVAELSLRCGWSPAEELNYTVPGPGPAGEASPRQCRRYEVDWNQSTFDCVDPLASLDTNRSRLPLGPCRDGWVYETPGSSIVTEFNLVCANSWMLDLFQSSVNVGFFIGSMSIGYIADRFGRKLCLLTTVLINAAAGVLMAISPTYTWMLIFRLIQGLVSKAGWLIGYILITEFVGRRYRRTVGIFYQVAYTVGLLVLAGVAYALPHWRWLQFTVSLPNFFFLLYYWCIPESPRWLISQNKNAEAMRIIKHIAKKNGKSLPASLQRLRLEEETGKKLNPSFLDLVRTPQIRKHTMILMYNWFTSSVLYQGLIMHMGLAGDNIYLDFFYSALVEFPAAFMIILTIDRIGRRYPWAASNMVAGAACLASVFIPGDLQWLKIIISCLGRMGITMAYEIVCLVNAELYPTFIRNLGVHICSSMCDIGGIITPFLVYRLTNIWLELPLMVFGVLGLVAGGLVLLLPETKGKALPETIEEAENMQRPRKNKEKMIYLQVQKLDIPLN
# MATE1 = molecular target: T3, MATE1 (Homo sapiens, UniProt Q96FL8); details: read-out: IC50 for MATE1 reported in the literature; cited from earlier work
# T3 sequence (Q96FL8 1-570): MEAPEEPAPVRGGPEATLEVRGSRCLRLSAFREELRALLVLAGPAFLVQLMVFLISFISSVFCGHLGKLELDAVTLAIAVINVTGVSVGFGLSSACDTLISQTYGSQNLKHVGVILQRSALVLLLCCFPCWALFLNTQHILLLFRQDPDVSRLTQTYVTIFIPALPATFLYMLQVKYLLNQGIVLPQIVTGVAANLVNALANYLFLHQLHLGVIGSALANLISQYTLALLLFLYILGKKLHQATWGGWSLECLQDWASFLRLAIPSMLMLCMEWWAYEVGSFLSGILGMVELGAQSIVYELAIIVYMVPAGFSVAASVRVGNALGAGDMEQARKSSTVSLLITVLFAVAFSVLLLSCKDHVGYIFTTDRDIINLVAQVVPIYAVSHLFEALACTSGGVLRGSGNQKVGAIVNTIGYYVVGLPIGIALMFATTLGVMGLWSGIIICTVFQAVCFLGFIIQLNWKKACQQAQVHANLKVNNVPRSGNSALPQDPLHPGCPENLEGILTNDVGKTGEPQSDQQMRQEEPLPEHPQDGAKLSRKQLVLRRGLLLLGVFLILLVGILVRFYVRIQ
# MATE2-K [3] = molecular target: T4, MATE2-K (Homo sapiens, UniProt Q86VL8); details: read-out: IC50 for MATE2-K reported in the literature; cited from earlier work
# T4 sequence (Q86VL8 1-566 isoform Q86VL8-3): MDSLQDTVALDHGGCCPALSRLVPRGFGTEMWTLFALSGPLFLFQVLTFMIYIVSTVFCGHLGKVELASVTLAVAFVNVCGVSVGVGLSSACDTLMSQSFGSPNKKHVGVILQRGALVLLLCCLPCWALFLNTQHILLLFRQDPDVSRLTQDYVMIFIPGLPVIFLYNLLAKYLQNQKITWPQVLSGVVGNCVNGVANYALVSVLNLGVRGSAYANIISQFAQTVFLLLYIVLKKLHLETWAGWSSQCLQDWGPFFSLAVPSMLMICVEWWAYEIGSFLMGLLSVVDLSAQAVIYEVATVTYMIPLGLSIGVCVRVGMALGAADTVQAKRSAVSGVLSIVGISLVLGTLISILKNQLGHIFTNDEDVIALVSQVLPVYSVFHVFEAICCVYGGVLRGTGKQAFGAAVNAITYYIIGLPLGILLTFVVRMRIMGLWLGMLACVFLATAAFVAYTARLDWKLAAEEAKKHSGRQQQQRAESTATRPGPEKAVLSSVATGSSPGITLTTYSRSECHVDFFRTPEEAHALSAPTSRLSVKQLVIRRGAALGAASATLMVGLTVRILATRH
# OCT1 [4] = molecular target: T1, OCT1; experiment: Inhibition of OCT1-mediated [14C]metformin uptake in HEK293-OCT1 cells; type: cell-based; design: host or cells: HEK293
# Method: (§1) HEK293 cells overexpressing OCT1, OCT2, MATE1, and MATE2-K (HEK293-OCT1, -OCT2, MATE1, and MATE2-K, respectively; Corning, Tewksbury, MA, USA) were used and characterized as previously described. […] In HEK293-MATE1 or -MATE2-K cells, 2 mM sodium butyrate was also supplemented in the culture medium. […] Sigma, St. Louis, MO, USA) and incubated for 30 min in HBSS. In HEK293-MATE1, or -MATE2-K cells, 40 mM ammonium chloride was also added for the outwardly directed proton gradient. […] After the 5 min incubation, cells were washed three times with 200 µL of ice-cold HBSS immediately after placing the plates on ice. Then, the cells were lysed with 10% sodium dodecyl sulfate (SDS) and the cell lysates were mixed with Optiphase cocktail solution. Thereafter, the radioactivity of the cell lysates was measured using a liquid scintillation counter (Microbeta 2, Perkin Elmer Inc., Boston, MA, USA).
# OCT2 [5] = molecular target: T2, OCT2; experiment: Inhibition of OCT2-mediated [14C]metformin uptake in HEK293-OCT2 cells; type: cell-based; design: host or cells: HEK293
# Method: as §1
# MATE2-K [6] = molecular target: T4, MATE2-K; experiment: Inhibition of MATE2-K-mediated [14C]metformin uptake in HEK293-MATE2-K cells; type: cell-based; design: host or cells: HEK293; details: read-out: IC50 on MATE2-K-mediated metformin uptake, 10 µM [14C]metformin, 5 min
# Method: as §1
smiles,measurement,setting,value
CN/C(=N/CCSCc1nc[nH]c1C)NC#N [cimetidine],pIC50,OCT1 [1],4.24
same,pIC50,OCT2 [2],3.96
same,pIC50,MATE1,6.15
same,pIC50,MATE2-K [3],5.32
same,pIC50,OCT1 [4],4.21
same,pIC50,OCT2 [5],3.70
same,pIC50,MATE2-K [6],5.30
